Experimental data as given in the RepoRT retention time repository.

experiment: HILIC, Waters Atlantis Premier BEH Z-HILIC, 100 × 2.1 mm, 1.7 µm, 40 °C, 0.16 mL/min, estimated dead time 1.4 min; A: water + 20 mM ammonium carbonate + 5 µM medronic acid; B: 10% water + 90% acetonitrile + 2 mM ammonium carbonate + 0.5 µM medronic acid; gradient (min/%B) 0/97 18/55 18.1/20 21.5/20 22/97 23.5/97 25.5/97; settings: stereoisomer not certain

| Compound | LC retention time [min] |
| --- | --- |
| NC(=O)C1=CN(C2OC(COP(=O)(O)OP(=O)(O)OCC3OC(n4cnc5c(N)ncnc54)C(O)C3O)C(O)C2O)C=CC1 (configuration not stated) [NADH] | 8.9 |
| O=P(O)(O)OCC(O)CO (configuration not stated) [Glycerol-3-phosphate] | 10.6 |
| O=P(O)(O)OCC1OC(O)(COP(=O)(O)O)C(O)C1O (configuration not stated) [Fructose-1,6-bisphosphate] | 15.5 |
| C[N+](C)(C)CC(O)CC(=O)[O-] (configuration not stated) [Carnitine] | 10.1 |
| CC(C)(COP(=O)(O)OP(=O)(O)OCC1OC(n2cnc3c(N)ncnc32)C(O)C1OP(=O)(O)O)C(O)C(=O)NCCC(=O)NCCS (configuration not stated) [CoenzymeA] | 12 |
| O=C(O)CCC(O)C(=O)O (configuration not stated) [2-hydroxy glutaric acid] | 9.7 |
| CC(O)C(=O)O (configuration not stated) [Lactic Acid] | 3.29 |
| O=P(O)(O)OCC1OC(O)C(O)C(O)C1O (configuration not stated) [Glucose-6-phosphate] | 12.5 |
| O=C(O)CC(C(=O)O)C(O)C(=O)O (configuration not stated) [Isocitric acid] | 13.6 |
| O=C(O)CCCCC1SCC2NC(=O)NC21 (configuration not stated) [Biotin] | 4.62 |
| CCC(=O)OC(CC(=O)[O-])C[N+](C)(C)C (configuration not stated) [carnitine-C3] | 6.89 |
| Nc1ncnc2c1ncn2C1OC(COP(=O)(O)O)C(O)C1O (configuration not stated) [AMP] | 9.68 |
| O=C(O)C(CO)OP(=O)(O)O (configuration not stated) [Phosphoglyceric acid A] | 12.6 |
| Nc1ncnc2c1ncn2C1OC(CO)C(O)C1O (configuration not stated) [Adenosine] | 4.45 |
| O=C(O)CC(O)(CC(=O)O)C(=O)O [Citric acid] | 13.7 |
| OCC1OC(O)C(O)C(O)C1O (configuration not stated) [Hexose] | 7.87 |
| Nc1ncnc2c1ncn2C1OC(COP(=O)(O)OP(=O)(O)O)C(O)C1O (configuration not stated) [ADP] | 11.6 |
| CC(=O)NC1C(OP(=O)(O)OP(=O)(O)OCC2OC(n3ccc(=O)[nH]c3=O)C(O)C2O)OC(CO)C(O)C1O (configuration not stated) [UDP-GlcNAc] | 10.1 |
| NC(=O)C1=CN(C2OC(COP(=O)(O)OP(=O)(O)OCC3OC(n4cnc5c(N)ncnc54)C(OP(=O)(O)O)C3O)C(O)C2O)C=CC1 (configuration not stated) [NADPH] | 13.8 |

| Compound | LC retention time [min] |
| --- | --- |
| Cc1cc2nc3c(=O)[nH]c(=O)nc-3n(CC(O)C(O)C(O)COP(=O)(O)OP(=O)(O)OCC3OC(n4cnc5c(N)ncnc54)C(O)C3O)c2cc1C (configuration not stated) [FAD] | 7.63 |
| CCC(C)C(N)C(=O)O (configuration not stated) [Isoleucine] | 6.73 |
| NC(=O)c1ccc[n+](C2OC(COP(=O)(O)OP(=O)(O)OCC3OC(n4cnc5c(N)ncnc54)C(O)C3O)C(O)C2O)c1 (configuration not stated) [NAD] | 10.5 |
| CC(C)CC(N)C(=O)O (configuration not stated) [Leucine] | 6.36 |
| NC(=O)c1ccc[n+](C2OC(COP(=O)(O)OP(=O)(O)OCC3OC(n4cnc5c(N)ncnc54)C(OP(=O)(O)O)C3O)C(O)C2O)c1 (configuration not stated) [NADP] | 13.3 |
| Nc1ncnc2c1ncn2C1OC(COP(=O)(O)OP(=O)(O)OP(=O)(O)O)C(O)C1O (configuration not stated) [ATP] | 13.3 |
| NC(N)=NCCCC(N)C(=O)O (configuration not stated) [Arginine] | 19.2 |
| O=C(O)CCC(=O)C(=O)O [2-Oxoglutaric acid] | 9.15 |
| Nc1nc2c(ncn2C2OC(COP(=O)(O)OP(=O)(O)OP(=O)(O)O)C(O)C2O)c(=O)[nH]1 (configuration not stated) [GTP] | 15.7 |
| C=C(OP(=O)(O)O)C(=O)O [PEP] | 13.4 |
| O=C(CO)COP(=O)(O)O [Triose phosphate] | 10.4 |
| CC(=O)SCCNC(=O)CCNC(=O)C(O)C(C)(C)COP(=O)(O)OP(=O)(O)OCC1OC(n2cnc3c(N)ncnc32)C(O)C1OP(=O)(O)O (configuration not stated) [Acetyl-CoA] | 10.4 |
| O=C1CC(C(=O)O)NC(=O)N1 (configuration not stated) [dihydroorotic acid] | 4.6 |
| NC(CCC(=O)O)C(=O)O (configuration not stated) [Glutamic acid] | 9.93 |
| O=C(CO)C(O)C(O)C(O)COP(=O)(O)O (configuration not stated) [Fructose 6-phosphate] | 11.5 |
| O=C(O)CCC(=O)O [Succinic Acid] | 9.71 |
| NC(=O)CCC(N)C(=O)O (configuration not stated) [Glutamine] | 10.6 |
| NCCCCC(N)C(=O)O (configuration not stated) [Lysine] | 19.4 |
